The text below walks through data of US4859682A, “2-Halogenated-8- and 1,8-substituted ergolenes” (Richter Gedeon Vegyeszeti Gyar Rt., priority 1986, dated 1989).

Usually ED50 stands for the midpoint of the dose-response relation.

Data set [1] can be described thus: Investigation of the cataleptogenic effect (catalepsy). Format: in vivo, Hann-Wistar rats (male). To be noted: rats; for ED50 at 5 h: rat, in vivo, po, hourly observed for 5 hours; for Catalepsy (percent): 60 mg/kg p.o. The method, then: (§1) The investigations were carried out on Hann-Wistar (LATI=a Hungarian firm with the name "Institute for Breeding Laboratory Animals") rats and CFLP (LATI) mice. The compounds to be tested were orally administered in a volume of 5 ml/kg of body-weight (abbreviated: ml/kg) to rats and in a volume of 10 ml/kg to mice 60 minutes before starting the experiment.
(§2) The substances were suspended in a solution of Tween 80 of 0.5% strength and then diluted to the desired concentration with physiological saline solution.
(§3) The results are expressed as percentages or, alternatively the ED50 values together with the 95% fiducial limits are given as calculated by means of the probit analysis [J. T. Litschfield and F. Wilcoxon: J. Pharmacol. 96, 99 (1949)].
2. Investigation of the cataleptogenic effect
The method of G. Stile and H. Launer [Arzneim.-Forsch. 21, 252 (1971)] was used for this test.
Male rats weighing 90 to 110 g (n=6) were treated with different doses of the compounds to be tested, then the number of the animals showing catalepsy was hourly observed for 5 hours.

For data set [2] the following is noted: H. Watchel et al., Life Sci. 33, 2583; cited from earlier work.
A short description of data set [3]: Investigation of the amphetamine group toxicity. To be noted: d-amphetamine 21 mg/kg i.p., 24 hours, mice; for Amphetamine group tox. (percent): 30 mg/kg p.o. Format: in vivo, CFLP mice. The method, then:
as §1, §2, §3
3. Investigation of the amphetamine group toxicity
The method of C. D. Proctor et al. [Arch. Int. Pharmacodyn. Ther. 163, 74 (1966)] was used for this test.
The examination was carried out on mice of both sexes weighing 22 to 27 g (n=5). At the 60th minute after administration of the compounds to be tested in a dose of 30 mg/kg, d-amphetamine in a dose of 21 mg/kg was intraperitoneally given to the animals tightly closed together (25 cm^2 /mouse) and the percentage of the perished animals was registered after 24 hours.

A short description of data set [4]: Inhibition of the conditioned avoidance response (CAR inhibition). To be noted: rats; for ED50: Rattus norvegicus, po, 1 h, p.o., 60 min before test. It counts as in vivo, Hann-Wistar rats (male). The method, then:
as §1, §2, §3
1. Inhibition of the conditioned avoidance response (CAR inhibition)
The method of D. Bovet et al. (in: Neuropsychopharmacology Vol. 2., p. 142 ed. Elsevier Publishing House, Amsterdam, 1961) was used for this test.
Male rats weighing 140 to 160 g were conditioned for 10 days in an automated six-channel shuttle box (VKI). Each one session consisted of 30 cycles; the time of the partial cycles was 15 seconds for intersignal time, 15 seconds for light stimulus, 10 seconds for light stimulus and footshock (0.8 mA). The selected animals (n=6; selected on the basis of a performance higher than 80% at the 10th day) were treated with a 20 mg/kg dose of the compounds to be tested before the 11th session and their performance (i.e. the mean of the number of the conditioned avoidance responses) was compared to the value obtained for each group at the previous day taken as control value.

The nature of data set [5]: Investigation of the asphyxial anoxia. It counts as in vivo, CFLP mice. To be noted: for ED50: Mus musculus, po, 1 h, survival time longer by 30% than control = protected; for ED50 / Asphyxial anoxia (percent): mice; for Asphyxial anoxia (percent): 50 mg/kg p.o. The method, then: as §1, §2, §3
5. Investigation of the asphyxial anoxia
The method of C. Caillard et al. [Life Sci. 16, 1607 (1975)] was used for this test.
Mice (n=5) of both sexes weighing 22 to 24 g were starved for 16 hours, then treated with a 50 mg/kg dose of the compounds to be tested. After 60 minutes, the animals were placed in tightly closed glass bottles of 100 ml volume and the survival time was registered.

Data set [6] deals with dopaminergic system. Briefly: Investigation of the apomorphine hypothermia-reverting effect. Format: in vivo, Hann-Wistar rats. To be noted: 10 mg/kg p.o., apomorphine 5 mg/kg i.p., rats. The method, then:
as §1, §2, §3
4. Investigation of the apomorphine hypothermia-reverting effect
The method of A. Barnett et al. [Arch. Int. Pharmacodyn. Ther. 198, 242 (1972)] was used for this test.
The rectal temperature of rats (n=5) was determined by using an Ellab thermometer before administering the compounds to be tested in a dose of 10 mg/kg. Thereafter, a dose of 5 mg/kg of apomorphine was intraperitoneally given and the temperature of the animals was hourly registered for 3 hours.
The significant apomorphine-antagonizing action (reversion of the hypothermia) of the compounds is a proof of inhibition of the dopaminergic system.

Molecules are shown by their SMILES. Counter-ions that a name gives are not always drawn.

Consider `CCN(CC)C(=O)NC1C=C2c3cccc4[nH]c(Br)c(c34)CC2N(C)C1` (stereo not drawn) [2-Bromolysuride, 2-bromolysuride, reference compound], for which the ED50 at 5 h in data set [1] amounted to 3.3 mg/kg. Also, the “neuroleptic effect (in words)” value in data set [2] is “strong neuroleptic effect”.

As to `CC(=O)OCC1C=C2c3cccc4c3c(c(Cl)n4C(C)=O)CC2N(C)C1` (stereo not drawn) [A, 1-Acetyl-8-acetyloxymethyl-2-chloro-6-methyl-9-ergolene], the ED50 was 19.6 mg/kg in data set [3] (Mus musculus, po, read-out: Amphetamine group tox. ED50); 3.4 mg/kg in data set [4]; 34.8 mg/kg in data set [5]. In data set [1], this compound came in with an ED50 at 5 h of 46.5 mg/kg. For the same compound, in data set [6], the “Apomorphine hypothermia, difference of temperature change vs. apomorphine alone, 60 min” value was “+1.3 °C”. The “Apomorphine hypothermia, difference of temperature change vs. apomorphine alone, 120 min” value in data set [6] was “+1.3 °C”.

For the compound `CC(=O)OCC1C=C2c3cccc4c3c(c(Cl)n4C=O)CC2N(C)C1` (stereo not drawn) [B, 8-acetyloxymethyl-2-chloro-1-formyl-6-methyl-9-ergolene hydrogen sulfate], the “Amphetamine group tox. (percent)” value in data set [3] came to 10%. Besides, in data set [1], the ED50 at 5 h is 51.9 mg/kg. This compound also registered an ED50 in data set [4] of 3.7 mg/kg. Further, in data set [5], the “Asphyxial anoxia (percent)” value came out at 20%. For the same compound, in data set [6], the “Apomorphine hypothermia, difference of temperature change vs. apomorphine alone, 60 min” value was “+2.0 °C” and the “Apomorphine hypothermia, difference of temperature change vs. apomorphine alone, 120 min” value is “+2.4 °C”.

Regarding `CN1CC(CCl)C=C2c3cccc4c3c(c(Cl)n4C=O)CC21` (stereo not drawn) [C, 2-chloro-8-chloromethyl-1-formyl-6-methyl-9-ergolene], the “Amphetamine group tox. (percent)” value in data set [3] was 0%. In data set [1], the “Catalepsy (percent)” value is given as 0%. Besides, in data set [4], it took a dose of 12.9 mg/kg to reach the 50% effect level (ED50). The “Asphyxial anoxia (percent)” value in data set [5] was determined as 50%. In data set [6], the “Apomorphine hypothermia, difference of temperature change vs. apomorphine alone, 60 min” value is “+0.6 °C” and the “Apomorphine hypothermia, difference of temperature change vs. apomorphine alone, 120 min” value is “+1.2 °C”.

Consider `CC(=O)OCC1C=C2c3cccc4c3c(c(Br)n4C(C)=O)CC2N(C)C1` (stereo not drawn) [D, 1-acetyl-8-acetyloxymethyl-2-bromo-6-methyl-9-ergolene], for which the “Amphetamine group tox. (percent)” value in data set [3] was determined as 0%. The median effective dose (ED50) at 5 h in data set [1] is 42.4 mg/kg. In addition, the 50% effective dose (ED50) in data set [4] was determined as 4.6 mg/kg. In addition, in data set [5], the “Asphyxial anoxia (percent)” value is 50%. Besides, in data set [6], the “Apomorphine hypothermia, difference of temperature change vs. apomorphine alone, 60 min” value was “+0.9 °C” and the “Apomorphine hypothermia, difference of temperature change vs. apomorphine alone, 120 min” value is “+1.7 °C”.

Take `CN1CC(CO)C=C2c3cccc4c3c(c(Cl)n4C)CC21` (stereo not drawn) [E, 2-chloro-1,6-dimethyl-8-hydroxymethyl-9-ergolene maleate]: the “Amphetamine group tox. (percent)” value in data set [3] is 0%. In addition, in data set [1], the “Catalepsy (percent)” value came to 0%. In addition, in data set [4] (20 mg/kg p.o.), the “CAR inhibition (percent)” value turned out to be 24%. In data set [5], this compound came in with a 50% effective dose (ED50) of 8.6 mg/kg. The “antihypoxic effect (in words)” value in data set [5] (mice p.o.) is “the antihypoxic effect comes into prominence”. In data set [6], the “Apomorphine hypothermia, difference of temperature change vs. apomorphine alone, 60 min” value is “+0.8 °C” and the “Apomorphine hypothermia, difference of temperature change vs. apomorphine alone, 120 min” value was “+1.8 °C”.
